From article PMC4077706, “Lifting the Mask: Identification of New Small Molecule Inhibitors of Uropathogenic Escherichia coli Group 2 Capsule Biogenesis” (PLoS ONE, 2014)
Where two headings read alike, the source gives them in different places.

How the values were obtained:
E. coli UTI89 = experiment: Human serum sensitization (MTT); assay type: cell-based, Escherichia coli; details: 50 µM, pooled human serum, vs DMSO p = 0.0067
Prostanoid EP4 = target: T1, Prostanoid EP4 (Homo sapiens, UniProt P35408); experiment: Radioligand binding 268420; details: 10 µM
T1 construct: host or cells: Chem-1

Dopamine D4.2 = target: T2, Dopamine D4.2 (Homo sapiens, UniProt P21917, DEL265-296); assay type: binding; details: 10 µM
T2 construct: host or cells: CHO-K1 cells

Adrenergic α1B = target: T3, Adrenergic α1B (Rattus norvegicus, UniProt P15823); assay type: binding; details: 10 µM
T3 construct: Wistar Rat liver; tissue Eurofins Panlabs (assay Cat #) 203200; host or cells: Wistar rat liver

Potassium Channel hERG = Potassium Channel hERG (Homo sapiens, UniProt Q12809); details: 10 µM
Adenosine A1 = target: T4, Adenosine A1 (Homo sapiens, UniProt P30542); experiment: Radioligand binding 200510; details: 10 µM
T4 construct: host or cells: CHO cells

Purinergic P2X = experiment: Radioligand binding 268700; design: species or system rabbit; details: 10 µM
Sigma σ1 = Sigma σ1 (Homo sapiens, UniProt Q99720); assay type: binding; details: 10 µM
[1] = system: K1 capsule biogenesis in E. coli UTI89; assay type: cell-based, Escherichia coli; details: average of at least 3 replicates ± SEM, read-out: IC50 K1 phage
Description: The primary assay consisted of detection of the presence and absence of the K1 capsule on the E. coli urinary tract isolate UTI89 under growth conditions with compounds from a large chemical library. The assay was conducted as previously described with the following modifications. The primary assay was conducted in 1,536-well plate format. UTI89 ΔkpsM, an isogenic K1 capsule export mutant, was included as an unencapsulated control. Tetracycline, 50 µM, was used as a negative growth control. A 1∶75 dilution of overnight cultures were made in LB broth containing 0.5% DMSO, and 3 µL of this culture was added to each plate well, and plates were incubated, inverted, at 37°C for 2 hr. […]. The plates were centrifuged briefly, and then were incubated, inverted, at 37°C for an additional 2 hr. […] Resorufin fluorescence was measured using excitation of 560 nm and emission of 590 nm, as per the manufacturer's recommendations.
Concentration-response testing (concentration range = 0.58–300 µM) was used to confirm and characterize the primary screen hits, which was necessary to determine the number of compounds advanced to secondary screens. […] The strain UTI89 ΔkpsM, a K1 capsule export mutant, was evaluated with the wild-type strain as a phage-insensitive control (mimicking 100% capsule inhibition).

[2] = target: Calcium Channel L-Type, Benzothiazepine (Rattus norvegicus, UniProt P22002); assay type: binding; details: 10 µM
Endothelin ETB = target: T5, Endothelin ETB (Homo sapiens, UniProt P24530); assay type: binding; details: 10 µM
T5 construct: host or cells: CHO-K1 cells

Phorbol Ester = experiment: Radioligand binding 264500; design: species or system mouse; details: 10 µM
[3] = system: GABAA, Flunitrazepam, Central; experiment: Radioligand binding 226600; design: species or system rat; details: 10 µM
[4] = system: Bladder carcinoma 5637 cells; assay type: cell-based
Description: Testing was performed essentially as previously described, [44]. Concentration-response testing was performed over a range 0.58–300 µM in a […] plate format. Bladder carcinoma 5637 cells (ATCC HTB-9) were added to the compounds, and 72 hrs later cell viability was measured using CellTiter Glo (Promega). […] Hyamine was used as a positive cytotoxic control. All wells contained 0.5% DMSO.

GABAB1A = target: T6, GABAB1A (Homo sapiens, UniProt Q9UBS5); experiment: Radioligand binding 228610; details: 10 µM
T6 construct: host or cells: CHO cells

Melatonin MT1 = target: T7, Melatonin MT1 (Homo sapiens, UniProt P48039); assay type: binding; details: 10 µM
T7 construct: host or cells: CHO-K1 cells

[5] = Mouse
Adrenergic β2 = target: T8, Adrenergic β2 (Homo sapiens, UniProt P07550); assay type: binding; details: 10 µM
T8 construct: host or cells: CHO cells

Adenosine A2A = target: T9, Adenosine A2A (Homo sapiens, UniProt P29274); experiment: Radioligand binding 200610; details: 10 µM
T9 construct: host or cells: HEK-293 cells
T9 sequence (P29274 whole entry): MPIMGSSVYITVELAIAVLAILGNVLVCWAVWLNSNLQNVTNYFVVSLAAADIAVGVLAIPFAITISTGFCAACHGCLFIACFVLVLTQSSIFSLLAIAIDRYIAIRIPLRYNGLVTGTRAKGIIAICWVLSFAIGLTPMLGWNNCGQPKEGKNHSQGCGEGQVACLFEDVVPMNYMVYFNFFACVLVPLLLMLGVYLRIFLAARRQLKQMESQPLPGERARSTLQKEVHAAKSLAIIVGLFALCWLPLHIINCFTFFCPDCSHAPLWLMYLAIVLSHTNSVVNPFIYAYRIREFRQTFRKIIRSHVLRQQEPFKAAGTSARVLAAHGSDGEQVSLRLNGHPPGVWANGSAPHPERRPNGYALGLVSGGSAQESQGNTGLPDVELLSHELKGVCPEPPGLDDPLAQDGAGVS

T5 sequence (P24530 27-442): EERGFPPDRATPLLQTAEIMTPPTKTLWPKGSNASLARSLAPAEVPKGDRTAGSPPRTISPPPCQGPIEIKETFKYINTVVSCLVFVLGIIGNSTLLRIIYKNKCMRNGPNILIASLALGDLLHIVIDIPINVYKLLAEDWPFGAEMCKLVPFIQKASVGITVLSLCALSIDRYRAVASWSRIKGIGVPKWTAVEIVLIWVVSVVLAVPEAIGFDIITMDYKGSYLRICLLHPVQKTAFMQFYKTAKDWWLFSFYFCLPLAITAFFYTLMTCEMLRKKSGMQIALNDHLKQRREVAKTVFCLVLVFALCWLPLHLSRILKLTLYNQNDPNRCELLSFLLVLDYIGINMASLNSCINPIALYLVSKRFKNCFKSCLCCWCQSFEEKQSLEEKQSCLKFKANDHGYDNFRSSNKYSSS
T6 sequence (Q9UBS5 15-961): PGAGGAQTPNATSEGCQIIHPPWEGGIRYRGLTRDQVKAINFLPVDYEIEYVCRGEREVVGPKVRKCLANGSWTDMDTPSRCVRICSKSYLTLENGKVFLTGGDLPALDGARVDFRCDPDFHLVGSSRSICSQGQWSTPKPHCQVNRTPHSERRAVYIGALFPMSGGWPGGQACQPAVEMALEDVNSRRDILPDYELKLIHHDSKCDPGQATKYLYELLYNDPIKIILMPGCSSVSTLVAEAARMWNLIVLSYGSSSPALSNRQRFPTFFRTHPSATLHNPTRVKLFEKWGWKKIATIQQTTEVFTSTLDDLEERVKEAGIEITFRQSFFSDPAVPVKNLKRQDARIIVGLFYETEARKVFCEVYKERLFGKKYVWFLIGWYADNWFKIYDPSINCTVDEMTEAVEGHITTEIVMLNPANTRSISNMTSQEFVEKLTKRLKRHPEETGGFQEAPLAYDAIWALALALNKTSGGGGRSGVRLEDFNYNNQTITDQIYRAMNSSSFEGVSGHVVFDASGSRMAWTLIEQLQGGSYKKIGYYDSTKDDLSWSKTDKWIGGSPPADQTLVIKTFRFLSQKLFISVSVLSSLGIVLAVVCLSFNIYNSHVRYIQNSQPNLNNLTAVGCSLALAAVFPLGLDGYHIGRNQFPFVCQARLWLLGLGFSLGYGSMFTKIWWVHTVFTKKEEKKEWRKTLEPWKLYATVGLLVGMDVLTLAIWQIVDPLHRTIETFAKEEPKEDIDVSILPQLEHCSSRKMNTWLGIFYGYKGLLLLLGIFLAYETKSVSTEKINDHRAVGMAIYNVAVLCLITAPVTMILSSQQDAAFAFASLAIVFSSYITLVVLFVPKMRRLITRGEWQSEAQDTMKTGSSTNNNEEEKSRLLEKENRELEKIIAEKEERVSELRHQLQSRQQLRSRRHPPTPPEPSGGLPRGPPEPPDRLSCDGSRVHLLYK
T8 sequence (P07550 whole entry): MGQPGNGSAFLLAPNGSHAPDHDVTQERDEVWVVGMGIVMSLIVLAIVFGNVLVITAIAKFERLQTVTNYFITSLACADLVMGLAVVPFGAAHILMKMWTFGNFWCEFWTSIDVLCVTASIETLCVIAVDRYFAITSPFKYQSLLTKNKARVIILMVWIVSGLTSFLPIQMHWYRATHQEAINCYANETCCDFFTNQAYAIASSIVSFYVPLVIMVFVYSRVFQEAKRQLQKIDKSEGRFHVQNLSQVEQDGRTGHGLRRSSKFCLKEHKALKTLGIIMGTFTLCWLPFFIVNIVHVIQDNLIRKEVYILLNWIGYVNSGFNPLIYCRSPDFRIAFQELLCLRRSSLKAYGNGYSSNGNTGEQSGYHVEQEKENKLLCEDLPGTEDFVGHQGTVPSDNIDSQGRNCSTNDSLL
Calcium Channel L-Type, Benzothiazepine, sequence (P22002 whole entry): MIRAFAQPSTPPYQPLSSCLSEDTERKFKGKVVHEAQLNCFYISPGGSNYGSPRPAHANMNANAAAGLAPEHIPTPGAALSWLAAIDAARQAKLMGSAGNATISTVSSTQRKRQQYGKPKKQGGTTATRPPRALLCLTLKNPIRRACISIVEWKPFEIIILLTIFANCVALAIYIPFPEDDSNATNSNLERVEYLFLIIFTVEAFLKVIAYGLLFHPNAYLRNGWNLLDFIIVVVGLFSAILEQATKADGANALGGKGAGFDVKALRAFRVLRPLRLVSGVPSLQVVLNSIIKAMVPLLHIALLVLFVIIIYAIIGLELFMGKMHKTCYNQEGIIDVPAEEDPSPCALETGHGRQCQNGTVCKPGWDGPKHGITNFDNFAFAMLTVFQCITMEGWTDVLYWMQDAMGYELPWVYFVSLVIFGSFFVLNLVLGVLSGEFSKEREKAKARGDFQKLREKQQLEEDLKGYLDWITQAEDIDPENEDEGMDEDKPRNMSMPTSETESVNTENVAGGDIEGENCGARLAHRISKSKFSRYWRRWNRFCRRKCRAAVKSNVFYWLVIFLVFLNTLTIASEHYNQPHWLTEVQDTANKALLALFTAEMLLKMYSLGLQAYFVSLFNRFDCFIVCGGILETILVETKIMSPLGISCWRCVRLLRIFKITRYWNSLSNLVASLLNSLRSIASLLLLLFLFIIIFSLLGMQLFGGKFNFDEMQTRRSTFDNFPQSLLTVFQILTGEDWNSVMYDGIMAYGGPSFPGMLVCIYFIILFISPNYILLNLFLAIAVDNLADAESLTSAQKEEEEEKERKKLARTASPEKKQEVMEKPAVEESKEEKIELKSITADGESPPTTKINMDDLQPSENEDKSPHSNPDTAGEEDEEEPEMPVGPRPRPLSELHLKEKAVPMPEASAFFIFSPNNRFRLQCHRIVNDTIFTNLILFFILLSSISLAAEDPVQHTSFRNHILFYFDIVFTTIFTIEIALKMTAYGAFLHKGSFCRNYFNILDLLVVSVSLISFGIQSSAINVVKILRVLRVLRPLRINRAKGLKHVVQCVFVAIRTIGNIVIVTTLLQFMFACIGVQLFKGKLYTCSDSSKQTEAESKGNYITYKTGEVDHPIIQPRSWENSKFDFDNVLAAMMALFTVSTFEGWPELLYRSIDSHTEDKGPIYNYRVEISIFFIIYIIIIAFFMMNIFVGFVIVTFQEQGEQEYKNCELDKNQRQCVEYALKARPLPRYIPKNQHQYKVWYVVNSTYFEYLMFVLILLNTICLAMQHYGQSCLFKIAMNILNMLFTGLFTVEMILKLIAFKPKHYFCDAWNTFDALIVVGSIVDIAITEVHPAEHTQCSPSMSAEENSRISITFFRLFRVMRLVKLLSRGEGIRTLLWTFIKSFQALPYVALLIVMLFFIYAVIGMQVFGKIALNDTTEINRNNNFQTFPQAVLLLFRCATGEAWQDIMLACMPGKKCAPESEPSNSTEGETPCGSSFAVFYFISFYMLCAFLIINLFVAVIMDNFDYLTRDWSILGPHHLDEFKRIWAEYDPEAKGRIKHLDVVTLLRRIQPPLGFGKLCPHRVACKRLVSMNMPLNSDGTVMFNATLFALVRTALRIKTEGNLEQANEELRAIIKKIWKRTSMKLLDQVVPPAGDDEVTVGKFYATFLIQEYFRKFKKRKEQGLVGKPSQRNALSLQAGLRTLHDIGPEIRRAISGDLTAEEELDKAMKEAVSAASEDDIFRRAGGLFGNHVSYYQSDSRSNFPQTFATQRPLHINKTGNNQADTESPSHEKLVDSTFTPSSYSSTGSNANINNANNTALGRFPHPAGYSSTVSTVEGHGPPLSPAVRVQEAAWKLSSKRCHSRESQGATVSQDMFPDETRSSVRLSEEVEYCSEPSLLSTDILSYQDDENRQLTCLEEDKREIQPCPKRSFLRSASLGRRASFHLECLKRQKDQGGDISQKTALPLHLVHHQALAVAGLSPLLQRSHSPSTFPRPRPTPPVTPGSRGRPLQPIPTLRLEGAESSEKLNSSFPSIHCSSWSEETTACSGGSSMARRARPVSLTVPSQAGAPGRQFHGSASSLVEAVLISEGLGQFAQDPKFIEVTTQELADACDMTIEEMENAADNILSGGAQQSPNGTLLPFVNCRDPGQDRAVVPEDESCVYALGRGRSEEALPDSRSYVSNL
Sigma σ1, sequence (Q99720 whole entry): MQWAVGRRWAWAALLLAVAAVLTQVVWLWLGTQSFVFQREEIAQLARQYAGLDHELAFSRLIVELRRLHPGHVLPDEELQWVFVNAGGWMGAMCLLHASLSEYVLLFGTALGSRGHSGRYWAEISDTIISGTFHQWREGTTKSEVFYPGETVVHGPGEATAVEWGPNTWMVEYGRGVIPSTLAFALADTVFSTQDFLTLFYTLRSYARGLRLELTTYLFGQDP
T2 sequence (P21917 other isoform, or with tags, fused parts or gaps DEL265-296): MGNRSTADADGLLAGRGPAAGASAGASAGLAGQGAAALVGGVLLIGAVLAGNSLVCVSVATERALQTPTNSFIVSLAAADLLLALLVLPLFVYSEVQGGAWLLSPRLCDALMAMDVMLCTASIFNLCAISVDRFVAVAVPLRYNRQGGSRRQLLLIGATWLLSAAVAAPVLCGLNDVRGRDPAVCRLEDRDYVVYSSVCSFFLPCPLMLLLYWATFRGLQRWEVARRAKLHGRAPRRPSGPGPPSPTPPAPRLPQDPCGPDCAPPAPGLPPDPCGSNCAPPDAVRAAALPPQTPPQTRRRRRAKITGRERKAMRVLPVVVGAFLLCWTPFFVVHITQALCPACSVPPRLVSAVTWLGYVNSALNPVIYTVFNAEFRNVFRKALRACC

## CCOc1ccc(-c2cc(NC(=O)c3c(F)cccc3F)c(C(=O)O)s2)cc1 [DU011]
E. coli UTI89
  serum-mediated killing of UPEC (MTT): further increased serum-mediated killing
Prostanoid EP4
  % Inh.: -4%
Dopamine D4.2
  % Inh.: 0%
Adrenergic α1B
  % Inh.: 14%
Potassium Channel hERG
  % Inh.: 9%
Adenosine A1
  % Inh.: -17%
Purinergic P2X
  % Inh.: 6%
Sigma σ1
  % Inh.: 9%
[1]
  IC50: 4.5 ± 2.5 µM
[2]
  % Inh.: -1%
Endothelin ETB
  % Inh.: 3%
Phorbol Ester
  % Inh.: 1%
[3]
  % Inh.: 12%
Donor pH 5.0, acceptor pH 7.4
  PAMPA Permeability Pe: 14 ×10⁻⁶ cm/s
Donor pH 6.2, acceptor pH 7.4
  PAMPA Permeability Pe: 209 ×10⁻⁶ cm/s
Donor pH 7.4, acceptor pH 7.4
  PAMPA Permeability Pe: 52 ×10⁻⁶ cm/s
[4]
  Selectivity (CC50/IC50): 13.3
[4]; 5637 cells, 72 hrs, ± SEM, read-out: Cytotoxicity (CC50)
  CC50: 51.6 ± 13.6 µM
GABAB1A
  % Inh.: 7%
Melatonin MT1
  % Inh.: 7%
[5]
  Plasma Stability, percent remaining at 3 hrs: 78.39%
Adrenergic β2
  % Inh.: 8%
Adenosine A2A
  % Inh.: -6%
